In patent US20230202997A1, “CHROMANOL, QUINONE OR HYDROQUINONE COMPOUNDS FOR TREATMENT OF SEPSIS” (Sulfateq B.V., priority 2020, published 2023):

Assays:
[1] = test system: IL-1β mRNA expression; assay: Endothelial inflammatory activation after endotoxin, IL-1β mRNA (Example 5); type: cell-based, Human; settings: HUVEC; 10 μM for 30 min
Protocol: (§1) Human Umbilical Cord Endothelial Cells (HUVEC, Lonza CC-2519) were maintained on 1% gelatin-coated culture flasks in RPMI1640 medium containing 20% fetal bovine serum, 2 mM Glutamine (Sigma-Aldrich), 1% Penicillin-Streptomycin solution (Sigma-Aldrich) and 50 μg/ml Bovine Pituitary Extract (Invitrogen). HUVEC were passaged by trypsinization when the cultures reach a confluency of 70%. For all experiments, HUVEC were seeded at 0.6·10^5 cells/cm^2 and allowed to adhere for 24 hours.
HUVEC cells were lysed in triZOL reagens (Invitrogen) and total RNA isolated according to manufacturers' instruction. 1 μg total RNA per sample was reverse transcribed using the FirstAid Reverse Transcription Kit (ThermoFisher). Copy-DNA equivalents of 5 ng total RNA were amplified on a ViiA7 Real-time PCR system (ThermoFisher, Waltham, Mass.) using iTaq Universal SYBR Green Supermix (Bio-Rad, Hercules, Calif.) and primers specific for tumor necrosis factor alpha (TNFα; sense 5′-[…]-3′, antisense 5′-[…]-3′), interleukin 1 beta (IL-1β; sense 5′-[…]-3′, antisense 5′-[…]-3′), interleukin-6 (IL-6; sense 5′-[…]-3′, antisense 5′-[…]-3′) and beta actin (ACTB; sense 5′-[…]-3′, antisense 5′-[…]-3′) as loading control. Amplification was performed for 40 cycles of 95° C. for 30 s, 60° C. for 1 min. Relative mRNA expression was calculated according to the δδCt-method.

[2] = test system: NO production in RAW264.7 macrophages; assay: Macrophage NO production (nitrate in conditioned medium), basal and after LPS; type: cell-based, Mouse
Protocol: Mouse macrophage RAW264.7 cells (ATCC #TIB-71) were maintained in DMEM medium containing 10% fetal bovine serum, and 1% Penicillin-Streptomycin solution (Sigma-Aldrich). […] For all experiments, RAW264.7 cells were seeded at 0.5·10^5 cells/cm^2 and allowed to adhere for 24 hours. Cellular production of NO was approximated by measuring nitrate concentrations in culture media using the Measure-IT™ High-Sensitivity Nitrite Assay Kit (#M36051, ThermoFisher) according to manufacturer's instructions. […] Therefore, nitrate concentrations in conditioned media are a good approximate to assess cellular NO production. 50 μl conditioned medium derived from a single 96-wells plate well was used per assay and normalized against protein concentration. All experiments were performed in quadruplicate. LPS induces macrophage NO production by activating iNOS. RAW264.7 macrophages were pre-treated with vehicle (DMSO), BN-80933, SUL-138, or SUL-150 or (all 10 μM) prior to endotoxin (LPS 100 ng/ml) exposure for 24 hours. The nitrate levels in the conditioned medium from LPS exposed RAW264.7 macrophages averaged at 83 pmol/mg protein (˜16-fold increase versus non-exposed RAW264.7 cells, p=0.001).

[3] = test system: NO production in HUVEC; assay: Endothelial NO production (nitrate in conditioned medium), basal and after LPS; type: cell-based, Human; settings: 10 μM pre-treatment, LPS 100 ng/ml for 24 hours
Protocol: as §1
Cellular production of NO was approximated by measuring nitrate concentrations in culture media using the Measure-IT™ High-Sensitivity Nitrite Assay Kit (#M36051, ThermoFisher) according to manufacturer's instructions. […] Therefore, nitrate concentrations in conditioned media are a good approximate to assess cellular NO production. 50 μl conditioned medium derived from a single 96-wells plate well was used per assay and normalized against protein concentration. All experiments were performed in quadruplicate.
Endotoxins suppress endothelial NO production by limiting the activity of eNOS. HUVEC were pre-treated with vehicle (DMSO), BN-80933, SUL-138, or SUL-150 or (all 10 μM) prior to endotoxin (LPS 100 ng/ml) exposure for 24 hours. The nitrate levels in the conditioned medium from endothelial cells exposed to LPS averaged at 160 pmol/mg protein (˜33% reduction versus non LPS exposed HUVEC, p=0.002), which was lower than basal control levels. BN-80933 further suppressed the nitrate levels in the conditioned medium (FIG. 7A) to an average of 90 pmol/mg protein (p=0.008).

With `Cc1c(C)c2c(c(C)c1O)CC[C@@](C)(C(=O)N1CCN(CCO)CC1)O2` [SUL-138, (S)-(6-hydroxy-2,5,7,8-tetramethylchroman-2-yl)(4-(2-hydroxyethyl)piperazin-1-yl)methanone] the “LPS-induced mRNA expression of IL-1β” value [1] was “precluded the LPS-induced increase in IL-1β and IL-6”, the “LPS-induced increase in extracellular nitrate level” value ([2]; 10 μM pre-treatment, LPS 100 ng/ml for 24 hours) was “Neither SUL-138 nor SUL-150 strongly suppressed the LPS-induced increase in nitrate production” and the “basal production of extracellular nitrate” value ([2]; no LPS, 10 μM) was “Neither BN-80933, SUL-138, nor SUL-150 affected the basal production of extracellular nitrate”. For the same compound, the “nitrate levels in the conditioned medium after LPS” value [3] was “mitigated the LPS-induced reduction in nitrate levels and their levels did not change from basal nitrate level”.
